Measured values taken from article PMC6037852, “Design of Diarylheptanoid Derivatives as Dual Inhibitors Against Class IIa Histone Deacetylase and β-amyloid Aggregation” (Frontiers in Pharmacology, 2018).

Legend:
HDAC4 = molecular target: T1, HDAC4 (Homo sapiens, UniProt P56524); assay: HDAC fluorometric activity assay, HDAC4; assay type: biochemical; details: Boc-Lys(TFA)-AMC 10 μM; read-out: IC50 Class IIa HDAC4
T1 construct: Genes encoding HDAC4 (residues 648–1057) flanked with NdeI and EcoRI sites; made in house; host or cells: E. coli BL21(DE3)
T1 sequence (P56524 648-1057): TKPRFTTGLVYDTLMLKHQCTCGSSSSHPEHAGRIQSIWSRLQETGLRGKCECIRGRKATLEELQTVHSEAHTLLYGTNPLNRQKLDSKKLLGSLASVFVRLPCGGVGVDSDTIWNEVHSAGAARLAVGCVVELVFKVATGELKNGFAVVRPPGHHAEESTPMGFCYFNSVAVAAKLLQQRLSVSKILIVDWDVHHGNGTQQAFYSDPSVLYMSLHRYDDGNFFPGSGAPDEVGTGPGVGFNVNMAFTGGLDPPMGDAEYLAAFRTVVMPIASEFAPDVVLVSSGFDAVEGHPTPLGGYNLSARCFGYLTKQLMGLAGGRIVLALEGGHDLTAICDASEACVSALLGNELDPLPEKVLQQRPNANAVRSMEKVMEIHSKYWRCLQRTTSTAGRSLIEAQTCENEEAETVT
Description: Proteins were expressed in BL21(DE3) cells by overnight induction with IPTG (1 mM) at 20–25°C and purified from cleared cell lysates by sequential chromatography on Ni-Sepharose 6 fast flow, Mono Q 5/50 GL, and Superdex 75 10/300 GL columns (GE Healthcare). Protein concentrations were quantified with Bradford Reagent (Bio-Rad).
Enzyme, inhibitors and substrate were diluted with HDAC buffer (15 mM Tris-HCl pH 8.1, 0.25 mM EDTA, 250 mM NaCl, 10% v:v glycerol). Briefly, 10 μL diluted HDAC, i.e., HeLa nuclear extract (Enzo), HDAC6 (BPS), HDAC4, HDAC5 (BPS), HDAC7 (BPS) and HDAC9 (BPS), as well as 50 μL of testing compounds at different concentrations were added to each well of a 96-well microtiter plate and pre-incubated at 30°C for 5 min. […] The fluorescence in wells without test compounds (0.1% DMSO, negative control) was set as 100% enzymatic activity and the fluorescence in wells with enzyme eliminated was set as 0% enzymatic activity. The fluorescence ratio of test compounds to negative control was defined as percentage of remaining enzyme activity. The IC50 values were calculated by linear regression of the data. All experiments were performed in triplicate.

HDAC9 = HDAC9 (Homo sapiens, UniProt Q9UKV0); assay: HDAC fluorometric activity assay, HDAC9
HDAC9, sequence (Q9UKV0 whole entry): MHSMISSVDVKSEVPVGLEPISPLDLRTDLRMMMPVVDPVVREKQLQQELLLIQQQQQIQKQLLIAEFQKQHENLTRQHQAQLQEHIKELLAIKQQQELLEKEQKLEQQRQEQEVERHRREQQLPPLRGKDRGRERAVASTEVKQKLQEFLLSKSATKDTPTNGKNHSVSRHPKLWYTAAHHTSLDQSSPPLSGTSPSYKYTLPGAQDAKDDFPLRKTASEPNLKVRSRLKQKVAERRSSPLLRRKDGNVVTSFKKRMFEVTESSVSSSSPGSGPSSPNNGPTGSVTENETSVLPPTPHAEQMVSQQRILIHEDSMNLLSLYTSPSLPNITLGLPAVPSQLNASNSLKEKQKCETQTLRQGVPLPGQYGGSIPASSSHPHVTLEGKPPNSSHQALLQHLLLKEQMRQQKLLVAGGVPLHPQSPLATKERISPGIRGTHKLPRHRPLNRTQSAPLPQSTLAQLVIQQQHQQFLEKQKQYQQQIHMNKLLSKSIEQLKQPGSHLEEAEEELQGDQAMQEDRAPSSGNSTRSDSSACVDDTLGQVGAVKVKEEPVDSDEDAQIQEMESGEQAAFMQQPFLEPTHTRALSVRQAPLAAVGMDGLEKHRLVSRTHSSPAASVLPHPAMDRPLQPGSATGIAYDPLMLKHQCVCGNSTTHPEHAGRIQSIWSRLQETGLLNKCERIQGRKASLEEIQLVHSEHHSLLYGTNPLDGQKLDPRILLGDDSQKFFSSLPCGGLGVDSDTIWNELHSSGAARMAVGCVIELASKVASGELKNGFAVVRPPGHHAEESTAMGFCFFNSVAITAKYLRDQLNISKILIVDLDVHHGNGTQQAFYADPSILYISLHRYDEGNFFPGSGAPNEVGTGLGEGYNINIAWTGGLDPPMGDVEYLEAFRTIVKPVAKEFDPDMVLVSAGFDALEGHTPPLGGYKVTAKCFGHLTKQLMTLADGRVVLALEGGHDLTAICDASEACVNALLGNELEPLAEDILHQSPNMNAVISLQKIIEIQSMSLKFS

HDAC7 = molecular target: T2, HDAC7 (Homo sapiens, UniProt Q8WUI4); assay: HDAC fluorometric activity assay, HDAC7; details: IC50 Class IIa HDAC7, fluorogenic HDAC class IIa substrate 10 μM
T2 sequence (Q8WUI4 1-952): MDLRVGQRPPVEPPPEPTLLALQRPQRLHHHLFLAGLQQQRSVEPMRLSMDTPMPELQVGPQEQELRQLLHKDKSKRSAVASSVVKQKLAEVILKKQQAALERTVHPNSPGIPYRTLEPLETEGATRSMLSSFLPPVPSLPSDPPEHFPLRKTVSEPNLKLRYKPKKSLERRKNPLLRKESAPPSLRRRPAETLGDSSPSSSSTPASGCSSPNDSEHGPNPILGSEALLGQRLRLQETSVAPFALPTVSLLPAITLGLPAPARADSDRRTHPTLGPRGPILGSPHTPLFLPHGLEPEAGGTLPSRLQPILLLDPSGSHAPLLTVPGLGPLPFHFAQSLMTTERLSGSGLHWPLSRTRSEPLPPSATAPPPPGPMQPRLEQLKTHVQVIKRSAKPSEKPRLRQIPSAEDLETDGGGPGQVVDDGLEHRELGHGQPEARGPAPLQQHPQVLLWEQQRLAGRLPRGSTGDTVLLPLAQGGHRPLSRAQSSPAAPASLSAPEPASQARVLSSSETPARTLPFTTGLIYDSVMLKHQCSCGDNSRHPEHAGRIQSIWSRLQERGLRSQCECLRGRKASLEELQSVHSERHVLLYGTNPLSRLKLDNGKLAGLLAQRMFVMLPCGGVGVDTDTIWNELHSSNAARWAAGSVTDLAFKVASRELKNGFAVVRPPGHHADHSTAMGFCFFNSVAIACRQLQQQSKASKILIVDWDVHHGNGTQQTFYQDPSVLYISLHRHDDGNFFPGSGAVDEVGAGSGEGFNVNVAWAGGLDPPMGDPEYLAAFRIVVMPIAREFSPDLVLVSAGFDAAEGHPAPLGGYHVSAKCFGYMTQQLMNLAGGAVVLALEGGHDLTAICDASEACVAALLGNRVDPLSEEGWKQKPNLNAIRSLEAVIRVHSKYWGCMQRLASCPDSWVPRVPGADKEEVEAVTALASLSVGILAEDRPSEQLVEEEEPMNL

HeLa nuclear HDACs = assay: HDAC fluorometric activity assay, HeLa nuclear extract; details: read-out: IC50 HeLa Nuclear HDACs; Boc-Lys(Ac)-AMC 10 μM
Aβ1-42 = molecular target: T3, Aβ1-42 (Homo sapiens, UniProt P05067); assay: Inhibition of Aβ1-42 self-aggregation, thioflavin-T (ThT) fluorescence assay; assay type: biochemical; details: 24 h; for IC50: read-out: Beta-Amyloid Aggregation IC50; for inhibition at 10 µM: single concentration of 10 μM, read-out: Beta-Amyloid Aggregation Inhibition (%)
T3 construct: Aβ1-42 peptides were purchased from Kelowna International Scientific Inc; purchased Kelowna International Scientific Inc
T3 sequence (P05067 672-713 limits assumed): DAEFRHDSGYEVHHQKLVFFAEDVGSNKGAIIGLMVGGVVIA
Description: Inhibition of Aβ1-42 self-aggregation was measured by thioflavin-T (ThT) fluorescence assay ([Hudson et al., 2009]). Aβ1-42 peptides were purchased from Kelowna International Scientific Inc. To avoid Aβ1-42 self-aggregation before the start of the experiment, Aβ1-42 peptides were dissolved in hexafluoroisopropanol (HFIP) to a concentration of 1 mM. The clear solution containing the dissolved peptide was then aliquoted in micro centrifuge tube. The solution was evaporated under vacuum to remove HFIP to give monomeric Aβ1-42. The monomeric Aβ1-42 was dissolved in NaOH(aq) (60 mM) to give a stock solution (1 mM). The Aβ1-42 stock solution was diluted with 50 mM phosphate buffer (containing 0.15 M NaCl, pH 7.4) before use. Fresh ThT stock solution was prepared by dissolving ThT (Sigma, T3516) in phosphate buffer and filtrated through […] Nylon syringe filter. The ThT stock solution and 400 mM ethylenediaminetetraacetic acid (EDTA) were diluted into the phosphate buffer to generate the working solution as background. A mixture of working solution (ThT final concentration: 10 μM), Aβ1-42 stock solution (Aβ1-42 final concentration: 10 μM) and the tested compounds were incubated on BioShake iQ ThermoMixer (37°C, 700 rpm) for 24 h. Fluorescence was measured by Victor 2X microplate spectrophotometer (excitation λ = 440 nm, emission λ = 486 nm), and adapted for 96-well microtiter plates. The fluorescence intensities were recorded and the percent inhibition due to the presence of the inhibitors were calculated by the following formula: (1 - IFi/IFc) × 100% where IFi and IFc were the fluorescence intensities obtained for Aβ1-42 in the presence and in the absence of inhibitors after subtracting the background, respectively. The IC50 values were calculated by the linear regression model of the data. All experiments were performed in triplicate.

Compound	IC50 (HDAC4)	IC50 (HDAC9)	IC50 (HDAC7)	IC50 (HeLa nuclear HDACs)	IC50 (Aβ1-42)	inhibition at 10 µM (Aβ1-42)
O=C(CCc1ccccc1)CCc1ccc(O)c(O)c1 [Compound 8c]	> 40 µM	33.8 ± 3.8 µM	8.9 ± 0.4 µM	> 40 µM	8 ± 1.6 µM	71.3 ± 3.8%
O=C(CCCc1ccccc1)CCc1ccc(O)c(O)c1 [Compound 8d]	> 40 µM	17.3 ± 3.2 µM	7.4 ± 1.6 µM	> 40 µM	8.5 ± 0.2 µM	59 ± 5.8%
